Measured values from PMC12031583 (Toxins, 2025).
Several values for one entry are separate records, joined by “and”; a condition that tells them apart may be missing. Equal values may be shown once. Read-outs that look alike come from different tables or passages of the source.

What was measured:
[1] = target: T1, α1-acid glycoprotein (AGP) (Homo sapiens, UniProt P02763); details: for effect on fluorescence emission signal of AGP / logK FL Quenching: pH 7.4
[2] = target: T2, β-lactoglobulin (LG, bovine) (Bos taurus, UniProt P02754); assay type: binding; details: pH 6.8
T2 sequence (P02754 17-178 limits assumed): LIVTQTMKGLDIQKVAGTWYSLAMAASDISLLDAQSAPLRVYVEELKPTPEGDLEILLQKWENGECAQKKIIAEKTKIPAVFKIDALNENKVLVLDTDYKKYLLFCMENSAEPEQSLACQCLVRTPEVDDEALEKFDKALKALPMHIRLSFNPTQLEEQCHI

[3] = target: T2, β-lactoglobulin (LG, bovine); experiment: biochemical; assay type: binding
[4] = system: casein (CSN, bovine); assay type: binding; details: pH 6.8
[5] = target: T3, α-lactalbumin (LA, bovine) (Bos taurus, UniProt P00711); experiment: biochemical; assay type: binding
T3 sequence (P00711 20-142 limits assumed): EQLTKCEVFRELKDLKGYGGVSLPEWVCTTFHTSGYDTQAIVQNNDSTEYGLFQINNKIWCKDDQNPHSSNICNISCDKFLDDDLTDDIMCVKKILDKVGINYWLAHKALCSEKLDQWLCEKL

[6] = system: human serum albumin (HSA); details: cited from earlier work
[7] = target: T4, bovine serum albumin (BSA) (Bos taurus, UniProt P02769); experiment: biochemical; details: logK BSA
T4 sequence (P02769 25-607 limits assumed): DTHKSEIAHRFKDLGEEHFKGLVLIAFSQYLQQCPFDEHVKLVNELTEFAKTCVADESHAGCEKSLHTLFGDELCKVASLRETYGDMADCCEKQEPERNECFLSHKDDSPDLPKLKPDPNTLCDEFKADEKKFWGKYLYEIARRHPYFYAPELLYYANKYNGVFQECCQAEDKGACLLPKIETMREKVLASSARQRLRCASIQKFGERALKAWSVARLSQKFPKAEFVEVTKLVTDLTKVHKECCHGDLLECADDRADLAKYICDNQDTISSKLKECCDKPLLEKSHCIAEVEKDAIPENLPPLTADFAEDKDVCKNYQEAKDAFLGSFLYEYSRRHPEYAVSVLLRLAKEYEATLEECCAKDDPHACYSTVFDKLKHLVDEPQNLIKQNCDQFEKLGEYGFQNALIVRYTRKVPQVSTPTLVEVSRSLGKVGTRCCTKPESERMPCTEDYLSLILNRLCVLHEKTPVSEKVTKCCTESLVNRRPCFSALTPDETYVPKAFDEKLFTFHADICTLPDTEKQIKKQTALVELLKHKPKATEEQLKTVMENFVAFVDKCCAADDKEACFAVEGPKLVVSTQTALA

[8] = target: T3, α-lactalbumin (LA, bovine); assay type: binding; details: pH 6.8
[9] = target: T4, bovine serum albumin (BSA); details: cited from earlier work
[10] = target: T1, α1-acid glycoprotein (AGP); experiment: in vitro
[11] = target: T4, bovine serum albumin (BSA)
[12] = target: T1, α1-acid glycoprotein (AGP); experiment: in vitro; details: pH 7.4
[13] = target: T1, α1-acid glycoprotein (AGP); experiment: in vitro; remark: listed apart in the source
[14] = system: casein (CSN, bovine); assay type: binding; details: pH 6.8; remark: listed apart in the source
[15] = target: T1, α1-acid glycoprotein (AGP); assay type: binding
[16] = target: T1, α1-acid glycoprotein (AGP); details: for logK FL Enhancement: pH 7.4
[17] = target: T1, α1-acid glycoprotein (AGP); details: pH 7.4

T1 sequence (P02763 19-201 limits assumed): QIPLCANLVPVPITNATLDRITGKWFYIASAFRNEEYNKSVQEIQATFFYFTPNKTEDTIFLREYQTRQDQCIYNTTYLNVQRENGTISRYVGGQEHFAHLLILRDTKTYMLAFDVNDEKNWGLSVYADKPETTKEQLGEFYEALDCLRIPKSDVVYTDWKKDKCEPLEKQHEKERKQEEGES

CC(=O)OC[C@]12C[C@H](OC(=O)CC(C)C)C(C)=C[C@H]1O[C@@H]1[C@H](O)[C@@H](OC(C)=O)[C@@]2(C)[C@]12CO2 [T2, T-2 toxin]
effect on fluorescence emission signal of AGP [1]: no or only minor decreases
effect on fluorescence emission signal of LG [2]: minor increase

COc1cc2c(c3oc4cccc(O)c4c(=O)c13)[C@@H]1C=CO[C@@H]1O2 [STC, sterigmatocystin]
effect of LG on mycotoxin level (free fraction) in supernatant ([3]; pH 6.8): not influenced
effect of CSN on mycotoxin level (free fraction) in supernatant [4]: not influenced
effect on fluorescence emission signal of AGP [1]: larger, concentration-dependent decreases
effect of LA on mycotoxin level (free fraction) in supernatant ([5]; pH 6.8): not influenced
K value of STC–HSA complex [6]: ≈ 2 × 10^4 L/mol
Kd [7]: 100 µM and 105 µM

C[C@H]1CCCC(=O)CCC/C=C/c2cc(O)cc(O)c2C(=O)O1 [ZEN, zearalenone]
quenching effect on fluorescence emission signal of LA [8]: slight
Kd [3]: 891 µM
logK CSN [4]: 3.48 ± 0.01
logK of ZEN–BSA and α-ZEL–BSA complexes [9]: 4.8
effect on fluorescence emission signal of AGP [1]: larger, concentration-dependent decreases
Kd [5]: 1620 µM
Kd ([10]; pH 7.4, logK FL Enhancement): 0.525 µM
Kd ([10]; pH 7.4, logK ± SEM 1. (FL enhancement)): 0.661 µM
Kd ([10]; pH 7.4, logK ± SEM 2. (FL enhancement)): 0.407 µM
Kd ([10]; pH 7.4, logK ± SEM 3. (FL enhancement)): 0.55 µM
logK of complex with HSA [6]: 5.1
fold higher affinity (binding constant) to BSA vs CSN ([11]; bovine, ultracentrifugation, pH 6.8): approximately 20 fold
Kd [12]: 0.372 µM
Kd [7]: 15.8 µM and 16.2 µM
Kd ([13]; pH 7.4, logK FL Quenching): 1.26 µM
Kd ([13]; pH 7.4, logK ± SEM 1. (FL quenching)): 1.35 µM
Kd ([13]; pH 7.4, logK ± SEM 2. (FL quenching)): 1.45 µM
Kd ([13]; pH 7.4, logK ± SEM 3. (FL quenching)): 1 µM

O=C1C=C2C(=CCOC2O)O1 (centres unmarked) [PAT, patulin]
effect on fluorescence emission signal of AGP [1]: no or only minor decreases

C[C@@H]1Cc2c(Cl)cc(C(=O)N[C@@H](Cc3ccccc3)C(=O)O)c(O)c2C(=O)O1 [OTA, ochratoxin A]
quenching effect on fluorescence emission signal of LA [8]: slight
logK of OTA–BSA and AOH–BSA complexes [9]: 6.5
effect on fluorescence emission signal of AGP [1]: no or only minor decreases
effect on fluorescence emission signal of CSN [14]: slight decreases

Cc1cc(O)cc2oc(=O)c3c(O)cc(O)cc3c12 [AOH, alternariol]
logK of OTA–BSA and AOH–BSA complexes [9]: 5.9

CCCC[C@@H](C)[C@@H](OC(=O)C[C@@H](CC(=O)O)C(=O)O)[C@H](C[C@@H](C)C[C@H](O)CCCC[C@@H](O)C[C@H](O)[C@H](C)N)OC(=O)C[C@@H](CC(=O)O)C(=O)O [FB1, fumonisin B1]
effect on fluorescence emission signal of AGP [1]: no or only minor decreases

CC1=C2C(=CO[C@H](C)[C@H]2C)C(O)=C(C(=O)O)C1=O [CIT, citrinin]
effect on fluorescence emission signal of AGP [1]: no or only minor decreases

aflatoxin B1 [AFB1]
quenching effect on fluorescence emission signal of LA [8]: slight
effect of LG on mycotoxin level (free fraction) in supernatant ([3]; pH 6.8): did not modify
logK CSN [4]: 3.3 and 3.34 ± 0.03
logK of AFB1–BSA [9]: ≈ 4.5
effect on fluorescence emission signal of AGP [1]: no or only minor decreases
effect of LA on mycotoxin level (free fraction) in supernatant ([5]; pH 6.8): did not modify
logK BSA ([11]; pH 6.8): 4.1 and 4.11 ± 0.02
effect on fluorescence emission signal of CSN [14]: slight decreases

CC(=O)C1=C(O)[C@@H]2[C@H]3c4c[nH]c5cccc(c45)C[C@H]3C(C)(C)N2C1=O [CPA, cyclopiazonic acid]
effect on fluorescence emission signal of AGP [1]: no or only minor decreases

C[C@H]1CCC[C@H](O)CCC/C=C/c2cc(O)cc(O)c2C(=O)O1 [α-ZEL, α-zearalenol]
quenching effect on fluorescence emission signal of LA [8]: slight
logK LG ([3]; pH 6.8): 3.35 ± 0.03
binding constant (K) of mycotoxin–AGP complex [15]: approximately 3 × 10^5 L/mol
fold higher affinity to AGP compared to HSA [15]: ~5 fold
logK ± SEM 1. (FL enhancement) [16]: 5.46 ± 0.06
logK ± SEM 2. (FL enhancement) [16]: 5.46 ± 0.08
logK ± SEM 3. (FL enhancement) [16]: 5.62 ± 0.07
logK FL Enhancement [16]: 5.51 ± 0.05
logK CSN [4]: 3.54 ± 0.01
logK of ZEN–BSA and α-ZEL–BSA complexes [9]: 4.5
logK ± SEM 1. (FL quenching) [1]: 5.57 ± 0.07
logK ± SEM 2. (FL quenching) [1]: 5.67 ± 0.05
logK ± SEM 3. (FL quenching) [1]: 5.70 ± 0.06
logK FL Quenching [1]: 5.65 ± 0.04
logK LA ([5]; pH 6.8): 2.92 ± 0.06
logK of complex with HSA [6]: 4.7
fold higher affinity (binding constant) to BSA vs CSN [11]: approximately 20 fold
logK Ultracentrifugation [17]: 5.48 ± 0.07
effect on fluorescence emission signal of CSN [14]: slight decreases

CC1=C[C@H]2O[C@@H]3[C@H](O)C[C@](C)([C@@]2(CO)[C@H](O)C1=O)[C@]31CO1 [DON, deoxynivalenol]
effect on fluorescence emission signal of AGP [1]: no or only minor decreases

C[C@H]1CCC[C@@H](O)CCC/C=C/c2cc(O)cc(O)c2C(=O)O1 [β-ZEL, β-zearalenol]
binding constant (K) of mycotoxin–AGP complex [15]: ~600000 L/mol
fold higher affinity to AGP compared to HSA [15]: ~30 fold
logK ± SEM 1. (FL enhancement) [16]: 5.83 ± 0.04
logK ± SEM 2. (FL enhancement) [16]: 5.94 ± 0.16
logK ± SEM 3. (FL enhancement) [16]: 6.04 ± 0.11
logK FL Enhancement [16]: 5.94 ± 0.06
logK ± SEM 1. (FL quenching) [1]: 5.76 ± 0.06
logK ± SEM 2. (FL quenching) [1]: 5.82 ± 0.09
logK ± SEM 3. (FL quenching) [1]: 5.76 ± 0.08
logK FL Quenching [1]: 5.78 ± 0.02
logK of complex with HSA [6]: 4.3
logK Ultracentrifugation [17]: 5.73 ± 0.02

aflatoxin M1 [AFM1]
effect of LG on mycotoxin level (free fraction) in supernatant ([3]; pH 6.8): did not show interactions
logK CSN [4]: 2.70 ± 0.08
effect of LA on mycotoxin level (free fraction) in supernatant ([5]; pH 6.8): did not show interactions
fold higher affinity (binding constant) to BSA vs CSN [11]: 10 fold
logK BSA ([11]; pH 6.8): 3.80 ± 0.03
